Reference: patent publication US20260284028A1, “FUSED BICYCLIC HETEROCYCLYL COMPOUNDS AS CCR4 MODULATORS” (AURIGENE ONCOLOGY LIMITED, priority 2023, published 2026)
Like-named read-outs stand apart in the source and are kept apart here.

Molecular target: T1, CCR4 (Homo sapiens, UniProt P51679)
T1 construct: expressed in transfected cells; host or cells: CHO-K1
T1 sequence (P51679 1-360): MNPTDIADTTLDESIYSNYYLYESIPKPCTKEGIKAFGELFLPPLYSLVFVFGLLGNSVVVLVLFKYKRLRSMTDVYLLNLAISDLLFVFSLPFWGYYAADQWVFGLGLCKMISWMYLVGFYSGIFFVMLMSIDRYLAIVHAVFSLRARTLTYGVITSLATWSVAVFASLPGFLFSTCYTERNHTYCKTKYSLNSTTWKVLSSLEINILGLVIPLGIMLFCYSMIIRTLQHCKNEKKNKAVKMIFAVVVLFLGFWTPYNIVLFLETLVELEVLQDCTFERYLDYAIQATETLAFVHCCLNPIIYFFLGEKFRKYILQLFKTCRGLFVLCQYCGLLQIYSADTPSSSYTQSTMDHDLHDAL
Experiment: β-Arrestin recruitment assay (CHO-K1 CCR4 β-Arrestin cells stimulated with recombinant human CCL22)
Type: cell-based
Settings: CCL22 10 nM stimulation; for IC50: read-out: CCR4 antagonistic activity IC50 (μM) in range; for inhibition: read-out: % inhibition at 5 μM/30 μM (% E-Max)
Method: CHO-K1 CCR4 β-Arrestin cells were seeded and incubated overnight at 37° C. in a CO2 incubator for adherence. Next day, cells were pretreated with various concentrations of CCR4 modulators for 30 mins at 37° C. The cells were stimulated with recombinant human CCL22 (10 nM) and further incubated for 90 mins. Working detection solution was added and incubated at room temperature for 1 hour after which the chemiluminescent signal was read using a luminometer.
Exemplary compounds of the present application were screened by the above-mentioned assay and the results were tabulated.

[1] = CHO-K1, read-out: % inhibition 30 μM (% E-Max)

Compound	IC50	inhibition [1]	inhibition (CHO-K1, at 30 μM)	% inhibition at 5 μM/30 μM (% E-Max) (at 5 μM)
Cc1cc2nc(N3CC([C@H]4CCCN([C@H]5C[C@](C)(C(=O)O)C5)C4)C3)oc2c(N[C@H](C)c2ccc(Cl)cc2Cl)c1Cl [Compound 9]	< 0.25 µM	103%		
C[C@@H](Nc1c(C#N)ccc2nc(N3CC([C@H]4CCCN([C@H]5C[C@](C)(C(=O)O)C5)C4)C3)oc12)c1ccc(Cl)cc1Cl [Compound 21]	< 0.25 µM	103%		
CC(Nc1c(F)ccc2nc(N3CC([C@H]4CCCN([C@H]5C[C@](C)(C(=O)O)C5)C4)C3)sc12)c1ncc(F)cc1F (stereo partly drawn) [Compound 38]	0.25 to 0.5 µM	81%		
C[C@@H](Nc1ncnc2nc(N3CC([C@H]4CCCN([C@H]5C[C@](C)(C(=O)O)C5)C4)C3)sc12)c1ncc(Cl)cc1Cl [Compound 53]	0.25 to 0.5 µM	94%		
C[C@@H](Nc1c(OC(F)F)ccc2nc(N3CC([C@H]4CCCN([C@H]5C[C@](C)(C(=O)O)C5)C4)C3)sc12)c1ncc(Cl)cc1Cl [Compound 48]		52%		
CC(Nc1c(F)cnc2nc(N3CC([C@H]4CCCN([C@H]5C[C@](C)(C(=O)O)C5)C4)C3)sc12)c1ncc(Cl)cc1Cl (stereo partly drawn) [Compound 41]	0.25 to 0.5 µM	101%		
C[C@@H](Nc1c(F)ccc2nc(N3CC([C@H]4CCCN([C@H]5C[C@](C)(C(=O)O)C5)C4)C3)sc12)c1ncc(F)cc1F [Compound 39]		39%		
C[C@@H](Nc1c(C(F)(F)F)ccc2nc(N3CC([C@H]4CCCN([C@H]5C[C@](C)(C(=O)O)C5)C4)C3)oc12)c1ccc(Cl)cc1Cl [Compound 13]	< 0.25 µM	101%		

More lines, now with the values ahead:

IC50	inhibition [1]	inhibition (CHO-K1, at 30 μM)	% inhibition at 5 μM/30 μM (% E-Max) (at 5 μM)	Compound
< 0.25 µM	102%			CC(Nc1c(F)ccc2nc(N3CC([C@H]4CCCN([C@H]5C[C@](C)(C(=O)O)C5)C4)C3)sc12)c1ncc(Cl)cc1Cl (mixture of isomers) [Compound 35, (1R,3r)-3-((3R)-3-(1-(7-((1-(3,5-dichloropyridin-2-yl)ethyl)amino)-6-fluorobenzo[d]thiazol-2-yl)azetidin-3-yl)piperidin-1-yl)-1-methylcyclobutane-1-carboxylic acid]
< 0.25 µM	103%			C[C@@H](Nc1c(F)ccc2nc(N3CC(C4CN([C@H]5C[C@](C)(C(=O)O)C5)CCO4)C3)sc12)c1ccc(Cl)cc1Cl (stereo partly drawn) [Compound 26]
< 0.25 µM		104%		C[C@@H](Nc1c(F)ccc2nc(N3CC([C@H]4CCCN([C@H]5C[C@](C)(C(=O)O)C5)C4)C3)oc12)c1ccc(Cl)cc1Cl [Compound 6]
0.25 to 0.5 µM			99% at 5 μM	C[C@@H](Nc1c(F)ccc2nc(N3CC(C4CN([C@H]5C[C@](C)(C(=O)O)C5)CCO4)C3)sc12)c1ccc(Cl)cc1Cl (single isomer, unassigned) [Compound 27]
< 0.25 µM	103%			Cc1ccc2nc(N3CC([C@H]4CCCN([C@H]5C[C@](C)(C(=O)O)C5)C4)C3)oc2c1N[C@H](C)c1ccc(Cl)cc1Cl [Compound 18]
